Data: patent publication US20250277012A1 (Protagonist Therapeutics, Inc., priority 2021, published 2025)
Where two headings read alike, the source gives them in different places. Positions of bridges follow the written chain, without caps; N, C: chain ends. Non-standard residues stand in square brackets, D forms with d. Residues, ends and D or L forms follow the SMILES beside them. Groups on a side chain read outwards from the residue. *: point of attachment. C18 diacid = O=C(O)CCCCCCCCCCCCCCCCC(=O)*; Dip = N[C@H](C(=O)O)C(c1ccccc1)c1ccccc1; Palmitoyl = CCCCCCCCCCCCCCCC(=O)*; β3hF = N[C@H](CC(=O)O)Cc1ccccc1; dPen = CC(C)(S)[C@@H](N)C(=O)O; Pen = CC(C)(S)[C@H](N)C(=O)O; Isovaleryl = CC(C)CC(=O)*; hCys = N[C@@H](CCS)C(=O)O; Dap = NC[C@H](N)C(=O)O; AEEA = NCCOCCOCC(=O)O; Ahx = NCCCCCC(=O)O

Target: T1, ferroportin (Homo sapiens, UniProt Q9NP59)
T1 sequence (Q9NP59 1-571): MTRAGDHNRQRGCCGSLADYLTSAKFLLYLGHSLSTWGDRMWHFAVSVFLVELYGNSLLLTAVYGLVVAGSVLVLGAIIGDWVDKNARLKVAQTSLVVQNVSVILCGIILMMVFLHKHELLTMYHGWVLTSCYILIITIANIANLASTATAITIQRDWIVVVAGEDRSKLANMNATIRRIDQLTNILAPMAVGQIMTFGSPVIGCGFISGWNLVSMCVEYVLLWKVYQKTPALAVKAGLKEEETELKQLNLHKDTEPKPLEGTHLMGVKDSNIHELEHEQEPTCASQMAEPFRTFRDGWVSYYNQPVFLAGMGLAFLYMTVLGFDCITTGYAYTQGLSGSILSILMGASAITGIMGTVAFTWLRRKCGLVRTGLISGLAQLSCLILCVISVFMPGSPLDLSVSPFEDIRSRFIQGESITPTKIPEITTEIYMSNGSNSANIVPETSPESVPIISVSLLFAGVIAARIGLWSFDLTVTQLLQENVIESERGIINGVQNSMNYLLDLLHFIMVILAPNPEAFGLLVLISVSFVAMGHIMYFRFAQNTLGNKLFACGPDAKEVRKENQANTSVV
Test: FPN activity assay: ferroportin-GFP internalization/degradation in HEK293 cells
Format: cell-based
Design: expressed in transfected cells
Settings: read-out: FPN IC50
Method: Following internalization, the ferroporin protein is degraded.
A retro inverse peptide is a peptide with a reversed sequence in all D amino acids. An example is that Hy-Glu-Thr-His-NH2 becomes Hy-DHis-DThr-DGlu-NH2. The EC50 of these reference compounds for ferroportin internalization/degradation was determined according to the FPN activity assay described above. These peptides served as control standards.

[1] = ferroportin-GFP HEK293 cells, at least 18 hours

| Compound | DC50 [1] | also measured |
| --- | --- | --- |
| CCCCCCCCCCCCCCCC(=O)NCCCCCC(=O)NCCCC[C@H](NC(=O)[C@@H](NC(=O)[C@@H]1CCSSCC[C@H](NC(C)=O)C(=O)N[C@@H](CCC(=O)O)C(=O)N[C@@H]([C@@H](C)O)C(=O)N[C@@H](Cc2c[nH]cn2)C(=O)N[C@@H](C(c2ccccc2)c2ccccc2)C(=O)N2CCC[C@H]2C(=O)N1)[C@@H](C)CC)C(=O)N[C@H](CC(N)=O)Cc1ccccc1 [Compd 14] (Ac-[hCys]ETH[Dip]P[hCys]IK([Ahx-Palmitoyl])[β3hF]-NH2; disulfide 1-7) | 100 to 500 nM |  |
| CCCCCCCCCCCCCCCC(=O)NCCCCCC(=O)NCCCC[C@H](NC(=O)C[C@H](Cc1ccccc1)NC(=O)[C@@H]1CSSC[C@H](NC(=O)[C@@H]2CCCN2C(=O)[C@@H](NC(=O)[C@H](Cc2c[nH]cn2)NC(=O)[C@@H](NC(=O)[C@H](CCC(=O)O)NC(=O)CC(C)C)[C@@H](C)O)C(c2ccccc2)c2ccccc2)C(=O)N[C@@H]([C@@H](C)CC)C(=O)N1)C(=O)N[C@H](CCCCN)C(N)=O [Compd 7] (Isovaleryl-ETH[Dip]PCIC[β3hF]K([Ahx-Palmitoyl])[dK]-NH2; disulfide 6-8) | 10 to 100 nM |  |
| CCCCCCCCCCCCCCCC(=O)NCCCCCC(=O)NCCCC[C@H](NC(=O)[C@@H](NC(=O)[C@@H]1CSSCC[C@H](NC(=O)CC(C)C)C(=O)N[C@@H](CCC(=O)O)C(=O)N[C@@H]([C@@H](C)O)C(=O)N[C@@H](Cc2c[nH]cn2)C(=O)N[C@@H](C(c2ccccc2)c2ccccc2)C(=O)N2CCC[C@H]2C(=O)N1)[C@@H](C)CC)C(=O)N[C@H](CC(N)=O)Cc1ccccc1 [Compd 13] (Isovaleryl-[hCys]ETH[Dip]PCIK([Ahx-Palmitoyl])[β3hF]-NH2; disulfide 1-7) | 100 to 500 nM |  |
| CC(C)CC(=O)N[C@@H](CCC(=O)O)C(=O)N[C@H](C(=O)N[C@@H](Cc1c[nH]cn1)C(=O)N[C@H](C(=O)N1CCC[C@H]1C(=O)N[C@@H]1C(=O)N[C@H](C(=O)N[C@@H](CCCCNC(=O)COCCOCCNC(=O)COCCOCCNC(=O)[C@H](CN)NC(=O)CCCCCCCCCCCCCCCCC(=O)O)C(=O)N[C@H](CC(=O)N[C@H](CCCCN)C(N)=O)Cc2ccccc2)C(C)(C)SSC1(C)C)C(c1ccccc1)c1ccccc1)[C@@H](C)O [compound 274] (Isovaleryl-ETH[Dip]P[Pen][Pen]K([AEEA-AEEA-Dap-C18 diacid])[β3hF][dK]-NH2; disulfide 6-7) |  | DC50 (ferroportin-GFP internalization/degradation, HEK293 cells, Table 6E): 10 to 100 nM |
| CCCCCCCCCCCCCCCC(=O)NCCCCCC(=O)NCCCC[C@H](NC(=O)C[C@H](Cc1ccccc1)NC(=O)[C@@H](CCCCN)NC(=O)[C@@H](NC(=O)[C@@H]1CSSC[C@H](NC(=O)[C@H](CCC(=O)O)NC(=O)CC(C)C)C(=O)N[C@@H](Cc2c[nH]cn2)C(=O)N[C@@H](C(c2ccccc2)c2ccccc2)C(=O)N2CCC[C@H]2C(=O)N1)[C@@H](C)CC)C(=O)N[C@H](CCCCN)C(N)=O [compound 134] (Isovaleryl-ECH[Dip]PCI[dK][β3hF]K([Ahx-Palmitoyl])[dK]-NH2; disulfide 2-6) |  | DC50 (Table 6D, ferroportin-GFP internalization/degradation, at least 18 hours incubation): 10 to 100 nM |

Continued, in another order:

| DC50 [1] | Compound | also measured |
| --- | --- | --- |
| 10 to 100 nM | CCCCCCCCCCCCCCCC(=O)NCCCCCC(=O)NCCCC[C@H](NC(=O)C[C@H](Cc1ccccc1)NC(=O)[C@@H]1NC(=O)[C@H]([C@@H](C)CC)NC(=O)[C@H](C)NC(=O)[C@@H]2CCCN2C(=O)[C@H](C(c2ccccc2)c2ccccc2)NC(=O)[C@H](Cc2c[nH]cn2)NC(=O)[C@H]([C@@H](C)O)NC(=O)[C@@H](NC(=O)CC(C)C)CSSC1(C)C)C(=O)N[C@H](CCCCN)C(N)=O [compound 104] (Isovaleryl-CTH[Dip]PAI[dPen][β3hF]K([Ahx-Palmitoyl])[dK]-NH2; disulfide 1-8) |  |
| 10 to 100 nM | CCCCCCCCCCCCCCCC(=O)NCCCCCC(=O)NCCCC[C@H](NC(=O)C[C@H](Cc1ccccc1)NC(=O)[C@@H]1CCSSC[C@H](NC(=O)CC(C)C)C(=O)N[C@@H]([C@@H](C)O)C(=O)N[C@@H](Cc2c[nH]cn2)C(=O)N[C@@H](C(c2ccccc2)c2ccccc2)C(=O)N2CCC[C@H]2C(=O)N[C@@H](C)C(=O)N[C@@H]([C@@H](C)CC)C(=O)N1)C(=O)N[C@H](CCCCN)C(N)=O [compound 108] (Isovaleryl-CTH[Dip]PAI[hCys][β3hF]K([Ahx-Palmitoyl])[dK]-NH2; disulfide 1-8) |  |
